# Test results taken from US20240109903A1, “SUBSTITUTED HETEROCYCLES FOR TREATING CANCER” (Northwestern University, priority 2022, published 2024).
# What was measured:
# A498 = assay: NCI 60 five-dose screen A498; assay type: cell-based; conditions: Homo sapiens
# SF-539 = assay: NCI 60 five-dose screen SF-539; assay type: cell-based; conditions: Homo sapiens
# U251 = assay: NCI 60 five-dose screen U251; assay type: cell-based; conditions: Homo sapiens
# A549/ATCC = assay: NCI 60 five-dose screen A549/ATCC; assay type: cell-based; conditions: Homo sapiens
# HOP-62 = assay: NCI 60 five-dose screen HOP-62; assay type: cell-based; conditions: Homo sapiens
# SNB-75 = assay: NCI 60 five-dose screen SNB-75; assay type: cell-based; conditions: Homo sapiens
# SK-OV-3 = assay: NCI 60 five-dose screen SK-OV-3; assay type: cell-based; conditions: Homo sapiens
# SK-MEL-28 = assay: NCI 60 five-dose screen SK-MEL-28; assay type: cell-based; conditions: Homo sapiens
# T-47D = assay: NCI 60 five-dose screen T-47D; assay type: cell-based; conditions: Homo sapiens, T47D
# HT29 = assay: NCI 60 five-dose screen HT29; assay type: cell-based; conditions: Homo sapiens
# M14 = assay: NCI 60 five-dose screen M14; assay type: cell-based; conditions: Homo sapiens
# HCC-2998 = assay: NCI 60 five-dose screen HCC-2998; assay type: cell-based; conditions: Homo sapiens
# SNB-19 = assay: NCI 60 five-dose screen SNB-19; assay type: cell-based; conditions: Homo sapiens
# SK-MEL-2 = assay: NCI 60 five-dose screen SK-MEL-2; assay type: cell-based; conditions: Homo sapiens
# OVCAR-3 = assay: NCI 60 five-dose screen OVCAR-3; assay type: cell-based; conditions: Homo sapiens
# NCI-H23 = assay: NCI 60 five-dose screen NCI-H23; assay type: cell-based; conditions: Homo sapiens
# HS 578T = assay: NCI 60 five-dose screen HS 578T; assay type: cell-based; conditions: Homo sapiens
# MDA-MB-468 = assay: NCI 60 five-dose screen MDA-MB-468; assay type: cell-based; conditions: Homo sapiens
# ACHN = assay: NCI 60 five-dose screen ACHN; assay type: cell-based; conditions: Homo sapiens
# UACC-62 = assay: NCI 60 five-dose screen UACC-62; assay type: cell-based; conditions: Homo sapiens
# OVCAR-4 = assay: NCI 60 five-dose screen OVCAR-4; assay type: cell-based; conditions: Homo sapiens
# COLO 205 = assay: NCI 60 five-dose screen COLO 205; assay type: cell-based; conditions: Homo sapiens
# MDA-MB-231/ATCC = assay: NCI 60 five-dose screen MDA-MB-231/ATCC; assay type: cell-based; conditions: Homo sapiens
# SK-MEL-5 = assay: NCI 60 five-dose screen SK-MEL-5; assay type: cell-based; conditions: Homo sapiens
# SN12C = assay: NCI 60 five-dose screen SN12C; assay type: cell-based; conditions: Homo sapiens
# SR = assay: NCI 60 five-dose screen SR; assay type: cell-based, human
# SW-620 = assay: NCI 60 five-dose screen SW-620; assay type: cell-based; conditions: Homo sapiens
# UACC-257 = assay: NCI 60 five-dose screen UACC-257; assay type: cell-based; conditions: Homo sapiens
# [1] = read-out: LC50 (the source's name) (converted)
# [2] = read-out: LC50 (the source's name)
structure (smiles),measurement,setting,value
O=c1ccc(Cn2c(C(F)(F)F)cc3c(Cl)ncnc32)c[nH]1 [NUCC-0226698],GI50,A498,≥ 100 µM
same,IC50,A498,100 µM
same,IC (TGI),A498,100 µM
same,CC50,A498; [1],≥ 100 µM
same,GI50,SF-539,17.4 µM
same,IC50,SF-539,32.4 µM
same,IC (TGI),SF-539,40.7 µM
same,CC50,SF-539; [1],95.5 µM
same,GI50,U251; U-251,22.4 µM
same,IC50,U251; U-251,33.1 µM
same,IC (TGI),U251; U-251,69.2 µM
same,CC50,"U251; U-251, read-out: LC50 (the source's name) (converted)",≥ 100 µM
same,GI50,A549/ATCC,64.6 µM
same,IC50,A549/ATCC,100 µM
same,IC (TGI),A549/ATCC,100 µM
same,CC50,A549/ATCC; [1],≥ 100 µM
same,GI50,HOP-62,46.8 µM
same,IC50,HOP-62,100 µM
same,IC (TGI),HOP-62,100 µM
same,CC50,HOP-62; [1],≥ 100 µM
same,GI50,SNB-75,10.7 µM
same,IC50,SNB-75,24 µM
same,IC (TGI),SNB-75,23.4 µM
same,CC50,SNB-75; [1],50.1 µM
same,GI50,SK-OV-3,44.7 µM
same,IC50,SK-OV-3,100 µM
same,IC (TGI),SK-OV-3,100 µM
same,CC50,SK-OV-3; [1],≥ 100 µM
same,GI50,SK-MEL-28,3.89 µM
same,IC50,SK-MEL-28,7.59 µM
same,IC (TGI),SK-MEL-28,18.6 µM
same,CC50,SK-MEL-28; [1],66.1 µM
same,GI50,T-47D,30.2 µM
same,IC50,T-47D,79.4 µM
same,IC (TGI),T-47D,100 µM
same,CC50,T-47D; [2],≥ 100 µM
same,GI50,HT29; HT-29,28.8 µM
same,IC50,HT29; HT-29,38 µM
same,IC (TGI),HT29; HT-29,100 µM
same,CC50,"HT29; HT-29, read-out: LC50 (the source's name) (converted)",≥ 100 µM
same,GI50,M14,4.07 µM
same,IC50,M14,6.92 µM
same,IC (TGI),M14,21.9 µM
same,CC50,M14; [1],≥ 100 µM
same,GI50,HCC-2998,2.88 µM
same,IC50,HCC-2998,5.25 µM
same,IC (TGI),HCC-2998,10 µM
same,CC50,HCC-2998; [1],34.7 µM
same,GI50,SNB-19,20.9 µM
same,IC50,SNB-19,39.8 µM
same,IC (TGI),SNB-19,58.9 µM
same,CC50,SNB-19; [1],≥ 100 µM
same,GI50,SK-MEL-2,17 µM
same,IC50,SK-MEL-2,33.1 µM
same,IC (TGI),SK-MEL-2,32.4 µM
same,CC50,SK-MEL-2; [1],63.1 µM
same,GI50,OVCAR-3,14.8 µM
same,IC50,OVCAR-3,28.8 µM
same,IC (TGI),OVCAR-3,33.1 µM
same,CC50,OVCAR-3; [1],72.4 µM
same,GI50,NCI-H23,3.98 µM
same,IC50,NCI-H23,8.71 µM
same,IC (TGI),NCI-H23,18.6 µM
same,CC50,NCI-H23; [1],72.4 µM
same,GI50,HS 578T,8.71 µM
same,IC50,HS 578T,100 µM
same,IC (TGI),HS 578T,50.1 µM
same,CC50,HS 578T; [2],≥ 100 µM
same,GI50,MDA-MB-468,2.09 µM
same,IC50,MDA-MB-468,8.13 µM
same,IC (TGI),MDA-MB-468,5.75 µM
same,CC50,MDA-MB-468; [1],25.1 µM
same,GI50,ACHN,22.4 µM
same,IC50,ACHN,33.9 µM
same,IC (TGI),ACHN,100 µM
same,CC50,ACHN; [1],≥ 100 µM
same,GI50,UACC-62,5.5 µM
same,IC50,UACC-62,11 µM
same,IC (TGI),UACC-62,20 µM
same,CC50,UACC-62; [1],53.7 µM
same,GI50,OVCAR-4,17.8 µM
same,IC50,OVCAR-4,36.3 µM
same,IC (TGI),OVCAR-4,44.7 µM
same,CC50,OVCAR-4; [1],≥ 100 µM
same,GI50,COLO 205,87.1 µM
same,IC50,COLO 205,100 µM
same,IC (TGI),COLO 205,100 µM
same,CC50,COLO 205; [1],≥ 100 µM
same,GI50,MDA-MB-231/ATCC,4.68 µM
same,IC50,MDA-MB-231/ATCC,10 µM
same,IC (TGI),MDA-MB-231/ATCC,18.2 µM
same,CC50,MDA-MB-231/ATCC; [1],57.5 µM
same,GI50,SK-MEL-5,4.07 µM
same,IC50,SK-MEL-5,7.08 µM
same,IC (TGI),SK-MEL-5,15.1 µM
same,CC50,SK-MEL-5; [1],38.9 µM
same,GI50,SN12C,6.46 µM
same,IC50,SN12C,11.7 µM
same,IC (TGI),SN12C,23.4 µM
same,CC50,SN12C; [1],69.2 µM
same,TGI,SR,4.93 −log[M]
same,GI50,SR; Homo sapiens,2.75 µM
same,IC50,SR; Homo sapiens,3.89 µM
same,CC50,"SR; Homo sapiens, read-out: LC50 (the source's name)",≥ 100 µM
same,GI50,SW-620,5.5 µM
same,IC50,SW-620,7.08 µM
same,IC (TGI),SW-620,26.3 µM
same,CC50,SW-620; [1],≥ 100 µM
same,GI50,UACC-257,3.16 µM
same,IC50,UACC-257,6.46 µM
same,IC (TGI),UACC-257,12.9 µM
same,CC50,UACC-257; [1],75.9 µM
